According to US20250188411A1, “METHOD FOR SELECTIVE REMOVAL OF […] PLURIPOTENT STEM CELLS” (Buddhist Tzu Chi Medical Foundation, priority 2023, published 2025):

Tests used:
[1] = test system: embryoid bodies derived from human iPSCs; assay: Treatment of embryoid bodies from human iPSCs (SFEB suspension, one day), morphology and trypan blue staining; type: cell-based; conditions: 24 hours
Description: (§1) Step 1: iPSCs were aggregated into suspended embryoid bodies (EBs), which is an initial step of differentiation. iPSCs were treated with 1 mg/mL Dispase II until the edges rolled up, then rinsed three times with PBS. The iPSCs were collected by a cell scraper and dispersed into cell mass with appropriate size by visual inspection of pipet. After suspended in Essential 6 medium containing RevitaCell, and the iPSCs were transferred to a sterile, non-adherent 6 cm2 culture plate for a 2-day suspension culture, with daily medium changing.
(§2) a. Drug Efficacy and Concentration Testing: n-Butylidenephthalide was diluted to different concentrations and administered to cells at final concentrations ranging from 50 to 750 μM. The types of administered cells include cultured human iPSCs, human iPSCs aggregated into SFEBs for one day, neural stem cells on day 10 of SFEB differentiation, neurons on day 25 of SFEB differentiation, and cells on day 5 of neural differentiation by the adhesion. The concentrations and treatment durations were as described in the Examples.
Cultured and collected iPSCs were aggregated into spheres using the SFEB suspension method and suspended in culture medium to simulate the three-dimensional structure of general pluripotent cell differentiation and transplantation. After only one day of suspension differentiation, the cells aggregated into structurally complete spheres (embryoid bodies).

[2] = test system: neural stem cells differentiated from human iPSCs; assay: Treatment of neural stem cells on day 10 of SFEB differentiation, morphology and NeuN/NF immunofluorescence; type: cell-based
Description: (§3) 3. Neural Differentiation of Human iPSCs Using the Serum-Free Embryoid Body (SFEB) Method: The differentiation of iPSCs into neural cells was performed in four steps. The first three steps involved SFEB suspension, in which suspended spheroid cells were cultured for 35 days, and the fourth step is a 3-day cell adhesion growth:
as §1
(§4) Step 2: The EBs were transferred to a 15 mL centrifuge tube for settlement at room temperature, and the EBs were cultured in suspension for 2 days by adding neural induction medium (NI medium, Gibco) after removal of the supernatant. […]
(§5) Step 4: The cells were attached to a culture plate coated with 1% basement membrane matrix or laminin/ornithine. […] The cells grow outward from the center of the colony, and after 3 days of continued culture, the cells were ready for experimentation. […]

[3] = test system: human induced pluripotent stem cells (iPSCs); assay: Treatment of cultured human iPSCs with n-butylidenephthalide, cell morphology and survival; type: cell-based; conditions: for number of human iPSCs versus control (Ctrl) and DMSO control: 100 μM
Description: 1. Culture of iPSCs in Essential 8 Feeder-Free Culture Medium: Human iPSCs were cultured in Essential 8 medium (Gibco) in culture dishes treated with basement membrane matrix (Matrigel). Subculture was performed when the cells reached 70% to 80% confluence, approximately 3 to 5 days. During subculture, the cells were rinsed twice with PBS until the edges began to lift, followed by treatment with a cell dissociation regent (Accutase) for 1 to 5 minutes to round up most of the cells. The cell dissociation regent was then diluted with DMEM/F12, and DMEM medium was added. The cells were scraped with even force by a cell scraper, dispersed into cell mass with appropriate size by mechanical force, and plated at an appropriate ratio (about 1:5 to 1:10) with 10 μM of Y27632 added.
as §2
Human induced pluripotent stem cells (iPSCs) were collected and cultured in Essential 8 medium without a feeder layer. After 24 hours of treatment with different concentrations of n-butylidenephthalide (100 μM, 200 μM, 500 μM, and 750 μM), the cell morphology was shown in FIG. 1A.

[4] = test system: dopamine neurons differentiated from human iPSCs; assay: Identification of differentiating dopamine neurons (CHSF-DA method): markers, dopamine ELISA, patch-clamp; type: cell-based; conditions: 100 μM on days 23 to 28 of CHSF-DA differentiation, FIGS. 8A to 8M
Description: 2. Dopaminergic Neuron Adherent Differentiation of Human iPSCs (CHSF-DA Differentiation Method): Human iPSCs, cultured in feeder-free environment, were subcultured at a 1:10 ratio for dopaminergic neurons differentiation. For induction, a neural induction medium composed of DMEM/F12 (2:1) and N2 supplement were used and dopaminergic precursor cell-inducing factors basic FGF (FGF-basic, as known as FGF-2 or bFGF) (10 mg/mL), SB431542 (2 μM), CHIR99021 (7.5 μM), SAG (1 μM), and LDN193189 (0.2 μM) were added in days 1 to 12 of the differentiation process. On day 13 of the differentiation process, the medium was switched to a neuron culture medium (Neurobasal medium and N2/B27 supplements), with SAG (0.5 μM) added from days 13 to 18. SAG was removed on day 18, and 100 μM of n-butylidenephthalide was added on days 23 to 28 for a total of 6 days. The cells were subsequently cultured in Neurobasal medium with N2/B27 supplements, the medium was changed every 2 days during the differentiation process with proteins and small molecules re-added.
b. Application of n-Butylidenephthalide in Dopaminergic Neuron Preparation: 100 μM of n-Butylidenephthalide was added from days 23 to 28 during the CHSF-DA differentiation process for a total of 6 days.
a. […] The slides were stored in the dark at 4° C. for subsequent analysis under a fluorescence microscope. […]

[5] = test system: differentiated neurons derived from human iPSCs; assay: Calcium ion imaging of differentiated neurons after KCl and glutamic acid stimulation; type: cell-based; conditions: tested day 38
Description: d. Calcium Ion Imaging Analysis: Cells were seeded onto 10 mm diameter coverslips coated with Geltrex and cultured in NB medium supplemented with RevitaCell and Compound E for 3 days. A 1 μM solution of Fluo-4 was prepared in physiological buffer. The coverslips were incubated in the Fluo-4 solution at 37° C. for 40 minutes, followed by incubation in physiological buffer at 37° C. for 20 minutes. The coverslips were then transferred to a calcium imaging chamber for perfusion imaging. The cells were perfused with physiological buffer for 30 seconds, then switched to 60 mM KCl perfusion for one minute, followed by physiological buffer perfusion for five minutes. Subsequently, the cells were perfused with 1 mM L-glutamic acid for one minute, followed by physiological buffer perfusion for five minutes. Images were captured using a Nikon ECLIPSE Ti2-E microscope and analyzed with NIS-Elements AR software.
Three sets of cells were prepared: one set of cells cultured without n-butylidenephthalide treatment (Ctrl), another set cultured with 500 μM n-butylidenephthalide for 120 hours on day 10 of differentiation (NPC-BP500), and a third set cultured with 500 μM n-butylidenephthalide for 120 hours on day 25 of differentiation (Neuron-BP500). […]

[6] = test system: neuronal cells differentiated from human iPSCs; assay: Treatment of neuronal cell spheroids on day 25 of SFEB differentiation, morphology and NeuN/NF immunofluorescence; type: cell-based
Description: as §3, §1, §4, §5

[7] = test system: undifferentiated pluripotent stem cells expressing Oct-4; assay: Oct-4 / N-cadherin immunofluorescence on day 5 of neural stem cell adhesion differentiation; type: cell-based, human; conditions: 50, 100 and 200 μM for 24 hours on day 5 of differentiation, FIG. 6
Description: 4. Neural Stem Cell Adhesion Differentiation of Human iPSCs (Neural Stem Cell Adhesion Differentiation Method): Human iPSCs, cultured in a feeder-free environment, were subcultured at a 1:10 ratio for neural stem cell differentiation. The differentiation was induced by using a neural induction medium composed of DMEM/F12 (2:1) and N2 supplement, with the addition of basic FGF (10 mg/mL), SB431542 (2 μM), and CHIR99021 (3 μM). The medium was changed every two days with proteins and small molecules re-added. Culture time for this neural stem cell adhesion differentiation is up to 7 days.
as §2
a. Immunofluorescence Staining Method: Chamber slides were surface-treated with 1% basement membrane matrix for 3 to 4 hours, and the slides were set aside after the matrix was removed. […] The slides were stored in the dark at 4° C. for subsequent analysis under a fluorescence microscope. […]

[8] = test system: residual undifferentiated pluripotent stem cells; conditions: early treatment; cited from earlier work

| Structure (SMILES) | viable cells by trypan blue staining ([1]; 200 μM) | viable cells by trypan blue staining ([1]; 500 μM) | morphology of suspended spheres (embryoid bodies) ([1]; 500 μM, FIG. 2) | cell death or morphological changes of suspended neural stem cell spheres ([2]; 50, 100, 200 and 500 μM for 120 hours from day 10 of differentiation, FIG. 3A) | ability of treated neural stem cells to differentiate into mature neurons (NeuN, NF) ([2]; treated from day 10, cultured until day 38, FIG. 3B) | number of human iPSCs versus control (Ctrl) and DMSO control ([3]; 24 hours, FIG. 1A) | number of human iPSCs versus control (Ctrl) and DMSO control ([3]; 48 hours, FIG. 1B) | cell morphology of human iPSCs ([3]; 200 μM, 48 hours, FIG. 1B) | adherence and survival of human iPSCs ([3]; concentrations above 500 μM, 24 hours, FIG. 1A) | survival of human iPSCs ([3]; concentrations above 500 μM, 48 hours, FIG. 1B) | effect on specific protein expression and neurological function of dopamine neurons [4] | calcium ion changes after KCl and glutamic acid stimulation versus Ctrl ([5]; NPC-BP500: 500 μM for 120 hours on day 10 of differentiation) | calcium ion changes after KCl and glutamic acid stimulation versus Ctrl ([5]; Neuron-BP500: 500 μM for 120 hours on day 25 of differentiation) | damage to neuronal cell spheroids or cell death ([6]; 50, 100, 200 and 500 μM for 120 hours from day 25 of differentiation, FIG. 4B) | NeuN and NF expression and morphology of treated mature neurons ([6]; treated from day 25, cultured until day 38, FIG. 4C) | proportion of undifferentiated pluripotent stem cells expressing Oct-4 [7] | presence of residual undifferentiated pluripotent stem cells [8] |
| --- | --- | --- | --- | --- | --- | --- | --- | --- | --- | --- | --- | --- | --- | --- | --- | --- | --- |
| CCCC=C1OC(=O)c2ccccc21 [n-butylidenephthalide] | decrease in viable cells | no viable cells were observed | all dispersed and died | no cell death or morphological changes were observed | able to differentiate normally into mature neurons | significantly lower | significantly lower | obvious floating and cell death | did not adhere or survive | No cells survived | did not affect the expression of specific proteins or the neurological function of dopamine neurons | no statistically significant differences | no statistically significant differences | no damage to the spheroids or cell death was observed | exhibiting typical nerve fiber morphology | decreased significantly |  |
| O=c1c(O)c(-c2ccc(O)c(O)c2)oc2cc(O)cc(O)c12 [quercetin] |  |  |  |  |  |  |  |  |  |  |  |  |  |  |  |  | can reduce |
